Reference: patent US11440922B2, “Heterocyclylmethylidene derivatives and their use as modulators of mGluR5 receptors” (Recordati Industria Chimica e Farmaceutica S.p.A., priority 2017, dated 2022)

Key:
human mGluR5 receptor = human mGluR5 receptor (Homo sapiens (Human), UniProt P41594); test: Radioligand binding assay at cloned human mGluR5 receptor subtype ([3H]MPEP); details: 4 nM [3H]MPEP, CHO T-REx h-mGluR5 cells, 60 min at 25° C.; read-out: mGlu5 Ki
Excerpt: (§1) Cell lines stably transfected were generated using inducible expression vectors encoding human mGlu5 receptor using the Tetracycline-Regulated Expression system (T-REx™ system, Invitrogen, Life Technologies). Human mGluR5 open reading frame (ORF), comprehensive of the stop codon, were cloned into the pcDNA4/TO/myc-His™ A vector, carrying the TetO2. The insertion site was HindIII-PstI for mGluR5 receptors. The obtained constructs were then transfected into the T-REx CHO™ cell line using the FuGENE protocol (Roche); the CHO T-REx™ cell line stably expresses the Tet repressor (from the pcDNA6/TR plasmid) under the selection of blasticidin, 10 μg/ml. Stable clones were obtained selecting with zeocin 1 mg/ml and maintaining in ULTRA CHO medium (LONZA) supplemented with dialyzed FBS, zeocin, blasticidine, at 37° C., in an atmosphere of 5% CO2. The expression of h-mGluR5 receptors was de-repressed with 1 μg/ml tetracycline for 18 h before binding experimentation, while the expression of h-mGluR5 receptors was derepressed respectively with 3 ng/ml and 10 ng/ml tetracycline for 18 h before calcium fluorescence experimentation.
Radioligand Binding Assay at Cloned Human mGluR5 Receptor Subtype
Affinity at transmembrane glutamate metabotropic cloned human mGluR5 receptor was evaluated according to the methods of Anderson (Anderson et al., J Pharmacol. Exp. Ther., (2002), Vol. 303(3), pp. 1044-51), with some modifications. Human cloned mGluR5 was obtained by re-suspending CHO T-REx h-mGluR5 cells (50 μg/well) in 20 mM HEPES, 2 mM MgCl2, 2 mM CaCl2, pH 7.4, that then were incubated in a final volume of 1 ml for 60 min at 25° C. with 4 nM [^3H]MPEP in the absence or presence of competing drugs. Non-specific binding was determined in the presence of 10 μM MPEP. The incubation was stopped by addition of cold Tris buffer pH 7.4 and rapid filtration through 0.2% polyethyleneimine pretreated Filtermat 1204-401 (Perkin Elmer) filters. The filters were then washed with cold buffer and the radioactivity retained on the filters was counted by liquid scintillation spectrometry (Betaplate 1204 BS-Wallac).
(§2) The inhibition curves of the tested compounds at cloned mGluR5 subtypes were determined by nonlinear regression analysis using software Prism 4.0 (Graphpad, San Diego, Calif.). The IC50 values and pseudo-Hill slope coefficients were estimated by the program. The values for the inhibition constant, Ki, were calculated according to the equation Ki=IC50/(1+[L]/Kd), where [L] is the concentration of radioligand and Kd is the equilibrium dissociation constant of the radioligand-receptor complex (Cheng et al., Biochem. Pharmacol. (1973), Vol. 22, pp. 3099-3108).

human mGlu5 receptor [1] = biological target: T1, human mGlu5 receptor (Homo sapiens (Human), UniProt P41594); test: Calcium fluorescence measurements, antagonist potency (negative allosteric modulator activity); type: cell-based; details: EC80 of quisqualate as agonist, compounds applied 10 minutes before agonist
Excerpt: as §1
(§3) Cells were seeded into black-walled, clear-bottom, 96-well plates at a density of 80000 cell/well, in RPMI (without Phenol Red, without L-glutamine; Gibco LifeTechnologies, CA) supplemented with 10% dialyzed FBS. Following 18-h incubation with tetracycline, the cells were loaded with […] Ca^2+-sensitive fluorescent dye Fluo-4/AM (Molecular Probes) in Hanks' balanced saline solution (HBSS, Gibco LifeTechnologies, CA) with […] Hepes (Sigma) and 2.5 mM probenecid (Sigma), for 1 h at 37° C. The cells were washed three times with HBSS to remove extracellular dye. Fluorescence signals were measured by using the fluorescence microplate reader Flexstation III (Molecular Devices) at sampling intervals of 1.5 s for 60 s.
(§4) The antagonist potency was determined using the EC80 of the quisqualate used as agonist and the potentiation of mGlu5 activation was determined using the EC20 of the agonist (quisqualate or glutamate). The compounds were applied 10 minutes before the application of the agonist.
(§5) The negative allosteric modulator activity (expressed as IC50) and the positive allosteric modulator activity (expressed as EC50) of the compounds of the invention for the mGlu5 receptors is between 0.1 and 1000 nM.
as §2

human mGlu5 receptor [2] = biological target: T1, human mGlu5 receptor; test: Calcium fluorescence measurements, potentiation of mGlu5 activation (positive allosteric modulator activity); type: cell-based; details: EC20 of the agonist (quisqualate or glutamate), compounds applied 10 minutes before agonist
Excerpt: as §1, §3, §4, §5

human mGlu5 receptor [3] = biological target: T1, human mGlu5 receptor; test: Fold shift of agonist curve determination; type: cell-based; details: ratio of EC50 agonist (quisqualate or glutamate) curves in presence and in absence of test compound; compound at 1 μM
Excerpt: as §1, §3
The PAM potency was evaluated by performing an agonist concentration response curve in the presence of the compounds. The compounds at fixed concentration (0.01 or 0.1 or 1 μM) were applied 10 minutes before the incubation of the agonist (quisqualate or glutamate) dose-response curve. The fold shift was determined as ratio of EC50 agonist curves in presence and in absence of test compound. For instance, and in particular compound 34 has a fold shift of 2.7.

T1 sequence (P41594 21-1212): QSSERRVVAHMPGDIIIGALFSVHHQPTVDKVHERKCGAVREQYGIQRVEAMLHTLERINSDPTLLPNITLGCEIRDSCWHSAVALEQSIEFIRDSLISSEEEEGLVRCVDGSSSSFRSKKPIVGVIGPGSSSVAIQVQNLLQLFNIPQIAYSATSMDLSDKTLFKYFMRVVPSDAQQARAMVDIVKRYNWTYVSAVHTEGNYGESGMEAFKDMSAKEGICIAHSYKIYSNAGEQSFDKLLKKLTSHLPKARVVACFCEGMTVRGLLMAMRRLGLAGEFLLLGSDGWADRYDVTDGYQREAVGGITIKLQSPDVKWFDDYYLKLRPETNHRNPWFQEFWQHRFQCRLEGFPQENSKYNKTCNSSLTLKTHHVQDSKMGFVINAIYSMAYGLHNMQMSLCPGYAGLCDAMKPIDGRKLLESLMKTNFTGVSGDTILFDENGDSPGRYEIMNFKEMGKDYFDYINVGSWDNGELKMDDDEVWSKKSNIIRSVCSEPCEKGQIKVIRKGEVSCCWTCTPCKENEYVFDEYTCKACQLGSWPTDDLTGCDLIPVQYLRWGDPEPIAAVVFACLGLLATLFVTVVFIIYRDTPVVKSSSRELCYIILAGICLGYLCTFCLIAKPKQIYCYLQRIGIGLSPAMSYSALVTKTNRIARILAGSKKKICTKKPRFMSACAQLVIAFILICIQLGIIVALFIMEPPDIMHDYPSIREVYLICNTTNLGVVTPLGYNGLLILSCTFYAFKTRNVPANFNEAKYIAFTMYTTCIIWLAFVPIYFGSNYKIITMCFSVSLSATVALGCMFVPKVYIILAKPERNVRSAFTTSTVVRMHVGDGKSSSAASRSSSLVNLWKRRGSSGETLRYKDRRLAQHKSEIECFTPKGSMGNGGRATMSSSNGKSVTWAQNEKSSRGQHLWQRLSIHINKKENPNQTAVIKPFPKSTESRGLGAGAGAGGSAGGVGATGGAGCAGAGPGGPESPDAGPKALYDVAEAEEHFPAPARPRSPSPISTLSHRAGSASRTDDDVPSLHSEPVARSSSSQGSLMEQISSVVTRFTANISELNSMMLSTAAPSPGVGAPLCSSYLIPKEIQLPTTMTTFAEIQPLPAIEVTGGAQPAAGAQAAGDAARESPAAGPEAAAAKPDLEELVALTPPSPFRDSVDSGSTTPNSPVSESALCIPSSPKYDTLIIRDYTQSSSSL
Chain of human mGluR5 receptor (P41594 21-1212): as above

Compound `CCOC(=O)N1CC/C(=C\C#Cc2cccc(C)n2)C(C)(C)C1` [Example 3, ethyl (4E)-3,3-dimethyl-4-[3-(6-methylpyridin-2-yl)prop-2-yn-1-ylidene]piperidine-1-carboxylate] has a Ki (human mGluR5 receptor) of 0.00147 µM.

Compound `CCOC(=O)N1CC/C(=C\C#Cc2cc(Cl)ccn2)C(C)(C)C1` [Example 18, ethyl (4E)-4-[3-(4-chloropyridin-2-yl)prop-2-yn-1-ylidene]-3,3-dimethylpiperidine-1-carboxylate] has a Ki (human mGluR5 receptor) of 0.00101 µM.

With `CCOC(=O)N1CC/C(=C\C#Cc2cc(F)ccc2F)C(C)(C)C1` [Example 19, ethyl (4E)-4-[3-(2,5-difluorophenyl)prop-2-yn-1-ylidene]-3,3-dimethylpiperidine-1-carboxylate] the Ki (human mGluR5 receptor) was 0.00089 µM.

Work on `CCOC(=O)N1CC/C(=C\C#Cc2cccc(C(F)(F)F)c2)C(C)(C)C1` [Example 22, ethyl (4E)-3,3-dimethyl-4-{3-[3-(trifluoromethyl)phenyl]prop-2-yn-1-ylidene}piperidine-1-carboxylate] yielded a Ki (human mGluR5 receptor) of 0.0019 µM and an IC50 (human mGlu5 receptor [1]) of 0.0663 µM.

`Cc1cccc(C(=O)N2CC/C(=C\C#Cc3cccc(Cl)c3)C(C)(C)C2)c1` [Example 43, {(4E)-4-[3-(3-chlorophenyl)prop-2-yn-1-ylidene]-3,3-dimethylpiperidin-1-yl}(3-methylphenyl)methanone] was tested, and the Ki (human mGluR5 receptor) was 0.00739 µM, the EC50 (human mGlu5 receptor [2]) was 0.0645 µM and the “mGlu5 Fold Shift @1 μM” value (human mGlu5 receptor [3]) was 2.8.

With `Cc1cc(C(=O)N2CC/C(=C\C#Cc3cccc(CO)c3)C(C)(C)C2)c(C)o1` [Example 46, (2,5-dimethylfuran-3-yl)[(4E)-4-{3-[3-(hydroxymethyl)phenyl]prop-2-yn-1-ylidene}-3,3-dimethylpiperidin-1-yl]methanone] the Ki (human mGluR5 receptor) was 0.323 µM, the EC50 (human mGlu5 receptor [2]) was 0.0374 µM and the “mGlu5 Fold Shift @1 μM” value (human mGlu5 receptor [3]) was 3.79.

Work on `COC(=O)N1CC/C(=C\C#Cc2nccc(C)n2)C1(C)C` [Example 64, methyl (3E)-2,2-dimethyl-3-[3-(4-methylpyrimidin-2-yl)prop-2-yn-1-ylidene]pyrrolidine-1-carboxylate] yielded a Ki (human mGluR5 receptor) of 0.0829 µM.

`CCOC(=O)N1CC/C(=C\C#Cc2cc(C#N)ccn2)C1(C)C` [Example 73, ethyl (3E)-3-[3-(4-cyanopyridin-2-yl)prop-2-yn-1-ylidene]-2,2-dimethylpyrrolidine-1-carboxylate] showed a Ki (human mGluR5 receptor) of 0.0298 µM.

For `CC1(C)CN(C(=O)c2cccc(Cl)c2)CC/C1=C\c1cc(-c2cccc(Cl)c2)[nH]n1` [Example 107, (3-chlorophenyl)[(4E)-4-{[5-(3-chlorophenyl)-1H-pyrazol-3-yl]methylidene}-3,3-dimethylpiperidin-1-yl]methanone], the Ki (human mGluR5 receptor) was 0.931 µM, the EC50 (human mGlu5 receptor [2]) was 0.121 µM and the “mGlu5 Fold Shift @1 μM” value (human mGlu5 receptor [3]) was 7.66.

For `CC1(C)CN(C(=O)c2cccc(Cl)c2)CC/C1=C\C#Cc1cccc(C#N)c1` [Example 116, 3-{(3E)-3-[1-(3-chlorobenzoyl)-3,3-dimethylpiperidin-4-ylidene]prop-1-yn-1-yl}benzonitrile], the Ki (human mGluR5 receptor) was 0.0016 µM, the EC50 (human mGlu5 receptor [2]) was 0.0528 µM and the “mGlu5 Fold Shift @1 μM” value (human mGlu5 receptor [3]) was 2.14.

With `CC1(C)CN(C(=O)c2cccc(Cl)c2)CC/C1=C\C#Cc1cccc(CO)c1` [Example 119, (3-chlorophenyl){(4E)-4-{3-[3-(hydroxymethyl)phenyl]prop-2-yn-1-ylidene}-3,3-dimethylpiperidin-1-yl]methanone] the Ki (human mGluR5 receptor) was 0.00805 µM, the EC50 (human mGlu5 receptor [2]) was 0.0497 µM and the “mGlu5 Fold Shift @1 μM” value (human mGlu5 receptor [3]) was 2.9.

For `CC1(C)CN(C(=O)c2cccc(Cl)c2)CC/C1=C\C#Cc1ccc(F)cc1` [Example 120, (3-chlorophenyl){(4E)-4-[3-(4-fluorophenyl)prop-2-yn-1-ylidene]-3,3-dimethylpiperidin-1-yl}methanone], the Ki (human mGluR5 receptor) was 0.00402 µM, the EC50 (human mGlu5 receptor [2]) was 0.0386 µM and the “mGlu5 Fold Shift @1 μM” value (human mGlu5 receptor [3]) was 5.5.

`CC1(C)CN(C(=O)c2cccc(O)c2)CC/C1=C\C#Cc1cccc(Cl)c1` [Example 126, {(4E)-4-[3-(3-chlorophenyl)prop-2-yn-1-ylidene]-3,3-dimethylpiperidin-1-yl}(3-hydroxyphenyl)methanone] was tested, and the EC50 (human mGlu5 receptor [2]) was 0.115 µM and the “mGlu5 Fold Shift @1 μM” value (human mGlu5 receptor [3]) was 3.4.

For `Cc1cccc(C(=O)N2CC/C(=C\C#Cc3cccc(Cl)c3)C(C)(C)C2)n1` [Example 128, {(4E)-4-[3-(3-chlorophenyl)prop-2-yn-1-ylidene]-3,3-dimethylpiperidin-1-yl}(6-methylpyridin-2-yl)methanone], the Ki (human mGluR5 receptor) was 0.00182 µM, the EC50 (human mGlu5 receptor [2]) was 0.165 µM and the “mGlu5 Fold Shift @1 μM” value (human mGlu5 receptor [3]) was 3.5.

With `COc1cccc(C(=O)N2CC/C(=C\C#Cc3cccc(Cl)c3)C(C)(C)C2)c1` [Example 137, {(4E)-4-[3-(3-chlorophenyl)prop-2-yn-1-ylidene]-3,3-dimethylpiperidin-1-yl}(3-methoxyphenyl)methanone] the EC50 (human mGlu5 receptor [2]) was 0.268 µM and the “mGlu5 Fold Shift @1 μM” value (human mGlu5 receptor [3]) was 2.1.

For `COc1cc(OC)nc(C(=O)N2CC/C(=C\C#Cc3cccc(Cl)c3)C(C)(C)C2)n1` [Example 166, {(4E)-4-[3-(3-chlorophenyl)prop-2-yn-1-ylidene]-3,3-dimethylpiperidin-1-yl}(4,6-dimethoxypyrimidin-2-yl)methanone], the “mGlu5 Fold Shift @1 μM” value (human mGlu5 receptor [3]) was 1.35.

With `CCn1nc(C)c(C(=O)N2CC/C(=C\C#Cc3cccc(Cl)c3)C(C)(C)C2)n1` [Example 167, {(4E)-4-[3-(3-chlorophenyl)prop-2-yn-1-ylidene]-3,3-dimethylpiperidin-1-yl}(2-ethyl-5-methyl-2H-1,2,3-triazol-4-yl)methanone] the Ki (human mGluR5 receptor) was 0.00242 µM, the EC50 (human mGlu5 receptor [2]) was 0.023 µM and the “mGlu5 Fold Shift @1 μM” value (human mGlu5 receptor [3]) was 2.7.

For `CC1(C)CN(C(=O)c2cccc(Cl)c2)CC/C1=C\C#Cc1cccc(O)c1` [Example 191, (3-chlorophenyl){(4E)-4-[3-(3-hydroxyphenyl)prop-2-yn-1-ylidene]-3,3-dimethylpiperidin-1-yl}methanone], the Ki (human mGluR5 receptor) was 0.00735 µM, the EC50 (human mGlu5 receptor [2]) was 0.224 µM and the “mGlu5 Fold Shift @1 μM” value (human mGlu5 receptor [3]) was 3.9.

With `COc1cccc(C(=O)N2CC/C(=C\C#Cc3cccc(C#N)c3)C(C)(C)C2)c1` [Example 196, 3-{(3E)-3-[1-(3-methoxybenzoyl)-3,3-dimethylpiperidin-4-ylidene]prop-1-yn-1-yl}benzonitrile] the EC50 (human mGlu5 receptor [2]) was 0.0877 µM and the “mGlu5 Fold Shift @1 μM” value (human mGlu5 receptor [3]) was 2.2.

In the case of `Cc1cc(C(=O)N2CC/C(=C\C#Cc3cc(F)cc(C#N)c3)C(C)(C)C2)c(C)o1` [Example 200, 3-[(3E)-3-{1-[(2,5-dimethylfuran-3-yl)carbonyl]-3,3-dimethylpiperidin-4-ylidene}prop-1-yn-1-yl]-5-fluorobenzonitrile], the Ki (human mGluR5 receptor) is reported as 0.637 µM, the EC50 (human mGlu5 receptor [2]) is reported as 0.291 µM and the “mGlu5 Fold Shift @1 μM” value (human mGlu5 receptor [3]) is reported as 2.3.

For `O=C(c1cccc(Cl)c1)N1CC/C(=C\C#Cc2cccc(Cl)c2)C(F)(F)C1` [Example 201, (3-chlorophenyl){(4E)-4-[3-(3-chlorophenyl)prop-2-yn-1-ylidene]-3,3-difluoropiperidin-1-yl}methanone], the Ki (human mGluR5 receptor) was 0.00191 µM, the EC50 (human mGlu5 receptor [2]) was 0.0882 µM and the “mGlu5 Fold Shift @1 μM” value (human mGlu5 receptor [3]) was 4.5.
